Measured values reported in patent publication US20240166622A1, “FLUORINATED QUINOLINE, QUINOXALINE AND BENZO[B][1,4]OXAZINE DERIVATIVES AS DIHYDROOROTATE DEHYDROGENASE (DHODH) INHIBITORS FOR THE TREATMENT OF CANCER, AUTOIMMUNE AND INFLAMMATORY DISEASES” (Janssen Biotech, Inc., priority 2019, published 2024).

Experiments:
human DHODH = human DHODH (Homo sapiens (Human), UniProt Q02127); experiment: DHODH Enzymatic Assay; assay type: biochemical; details: purified human DHODH, DCIP absorbance, end-point mode
Method: To detect DHODH enzyme activities, dichloroindophenol (DCIP) is added as the final electron acceptor in the assay. DCIP can accept electrons from the reduced coenzyme Q generated in the assay, or from dihydroorotate (DHO) via FMN by binding presumably to the ubiquinone pocket. […] The assay buffer contained […], pH 7.5, 150 mM NaCl, 0.5 mM EDTA, and 0.1% Triton X-100 in MilliQ water. Substrate consisting of 20 mM DHO, 5 mM CoQ6, and 1 mM DCIP in assay buffer, initiates the reaction. […] Absorbance measurements were obtained using the BMG Phera Star plate-reading spectrophotomer. Purified human DHODH was purchased from Proteros (cat. No. PR-0044). Chemicals were purchased from Sigma-Aldrich, Teknova, and Avanti Polar Lipids. Liquid handling was performed using Labcyte Echo and Formulatrix Tempest.

MOLM-13 cells = experiment: MOLM-13 Cellular Assay; assay type: cell-based; details: Homo sapiens, 72 hours, cell viability by CellTiter-Glo
Method: MOLM-13 cells were obtained from DSMZ and were maintained in RPMI 1640+Glutamax+25 mM HEPES (Invitrogen, catalog number 72400) supplemented with 10% heat inactivated fetal bovine serum (FBS; Invitrogen, catalog number 16140). The day prior to assay set-up, cells were pelleted, resuspended in fresh media, counted, and cells were plated at 0.4×10^6 cell/mL in a T150 flask. On the day of the assay, cells were pelleted, resuspend in fresh media, counted, and seeded at 5,000 cells/well in white opaque 96-well tissue culture treated microplates (Perkin Elmer, catalog number 6005680). Cells were exposed to different concentrations of test compounds at 37° C., 5% CO2 for 72 hours immediately after seeding. Cell viability was acquired on a Perkin Elmer Envision 2104 multilabel reader using the CellTiter-Glo assay (Promega) according to the manufacturer's instructions.

human DHODH, sequence (Q02127 whole entry): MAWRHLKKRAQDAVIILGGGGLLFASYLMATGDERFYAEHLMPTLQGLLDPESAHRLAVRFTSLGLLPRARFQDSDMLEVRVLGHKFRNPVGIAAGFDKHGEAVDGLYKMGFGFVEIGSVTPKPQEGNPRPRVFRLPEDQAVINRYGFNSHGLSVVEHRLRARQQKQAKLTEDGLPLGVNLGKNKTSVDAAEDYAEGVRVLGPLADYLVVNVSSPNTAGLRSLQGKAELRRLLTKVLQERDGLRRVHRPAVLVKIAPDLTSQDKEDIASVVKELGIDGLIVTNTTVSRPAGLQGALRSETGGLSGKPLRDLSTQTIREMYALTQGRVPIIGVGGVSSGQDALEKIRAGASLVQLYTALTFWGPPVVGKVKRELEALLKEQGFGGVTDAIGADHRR

## CCn1c(CO)nn(-c2cc3c(cc2F)[C@@H](O)[C@@H](c2ccccc2C)CN3C(C)C)c1=O (stereo in doubt) [Example 15, 4-Ethyl-2-((3S*,4S*)-6-fluoro-4-hydroxy-1-isopropyl-3-(o-tolyl)-1,2,3,4-tetrahydroquinolin-7-yl)-5-(hydroxymethyl)-2,4-dihydro-3H-1,2,4-triazol-3-one]
Human DHODH
  IC50: 7.9 nM
MOLM-13 cells
  IC50: 4 nM
